{
  "source": "paper PMC11731258",
  "about": "“The structural basis for high-affinity c-di-GMP binding to the GSPII-B domain of the traffic ATPase PilF from Thermus thermophilus” (The Journal of Biological Chemistry, 2024)",
  "key": {"[1]": {"biological_target": "T1, PilF1-482 (GSPII-A, -B, -C; lacks ATPase domain) (Thermus thermophilus, UniProt Q5SLC9)", "T1 sequence (Q5SLC9 1-482)": "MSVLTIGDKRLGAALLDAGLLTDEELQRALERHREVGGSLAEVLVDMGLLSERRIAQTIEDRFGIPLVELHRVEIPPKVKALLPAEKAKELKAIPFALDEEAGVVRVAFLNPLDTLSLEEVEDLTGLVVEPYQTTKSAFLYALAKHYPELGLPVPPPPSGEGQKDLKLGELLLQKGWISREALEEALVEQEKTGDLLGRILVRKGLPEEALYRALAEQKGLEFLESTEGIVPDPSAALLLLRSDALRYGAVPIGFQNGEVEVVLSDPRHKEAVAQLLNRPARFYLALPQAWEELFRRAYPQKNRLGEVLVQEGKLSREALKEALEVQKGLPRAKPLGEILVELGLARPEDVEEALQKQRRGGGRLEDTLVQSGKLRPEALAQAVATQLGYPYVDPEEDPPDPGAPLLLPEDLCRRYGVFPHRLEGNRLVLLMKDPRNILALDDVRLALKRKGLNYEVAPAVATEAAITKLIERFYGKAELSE", "test": "ITC binding to PilF1-482", "details": "20 °C; for Kd: pH 7.5, two-site model", "experimental": "(§1) To assess the ligand-binding capabilities of the various PilF constructs, triplicates of ITC measurements were recorded for each construct. The measurements were carried out using a MicroCal ITC200 (Malvern Panalytical). All ITC experiments were conducted at 20 °C with 50 mM Tris-HCl pH 7.5, 200 mM sodium chloride, 1 mM β-mercaptoethanol as the sample buffer. All protein samples were extensively dialyzed against the sample buffer and the buffer used for dialysis was used to dilute protein and c-di-GMP samples in preparation for the ITC measurements. Each measurement was conducted using the following protocol. In total, 39.8 μl c-di-GMP were titrated to 270 μl protein in 20 separate injections in 180 s intervals with a stirring speed of 750 rpm. After an initial delay of 120 s, the first injection of 0.2 μl c-di-GMP with a duration of 0.4 s was followed by 19 injections of 2 μl with a duration of 4 s. During the measurement, the feedback mode was set to high and the reference power to 11 μcal s^−1. To optimize precision of the measurements, protein and c-di-GMP concentrations were adjusted to the binding capabilities of the respective constructs and ranged from 5 to 200 μM for protein and 50 to 2000 μM for c-di-GMP. All thermograms were processed using Origin 7.0 (OriginLab) using a one-site– or two-site–binding model dependent on the number of expected binding events."}, "PilF159-482": {"biological_target": "T2, PilF159-482 (Thermus thermophilus, UniProt Q5SLC9)", "T2 sequence (Q5SLC9 159-482)": "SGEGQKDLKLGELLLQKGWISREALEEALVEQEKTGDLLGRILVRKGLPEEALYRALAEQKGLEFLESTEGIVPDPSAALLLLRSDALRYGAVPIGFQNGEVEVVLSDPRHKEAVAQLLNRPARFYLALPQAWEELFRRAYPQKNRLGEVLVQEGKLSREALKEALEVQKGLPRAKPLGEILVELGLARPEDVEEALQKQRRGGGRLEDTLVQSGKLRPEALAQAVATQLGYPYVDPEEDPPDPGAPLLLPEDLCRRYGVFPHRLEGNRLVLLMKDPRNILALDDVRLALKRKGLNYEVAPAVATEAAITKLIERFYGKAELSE", "test": "ITC binding to PilF159-482", "details": "20 °C; for Kd: pH 7.5, two-site model", "experimental": "as §1"}, "[2]": {"biological_target": "T3, PilF1-302 (GSPII-A and GSPII-B) (Thermus thermophilus, UniProt Q5SLC9)", "T3 sequence (Q5SLC9 1-302)": "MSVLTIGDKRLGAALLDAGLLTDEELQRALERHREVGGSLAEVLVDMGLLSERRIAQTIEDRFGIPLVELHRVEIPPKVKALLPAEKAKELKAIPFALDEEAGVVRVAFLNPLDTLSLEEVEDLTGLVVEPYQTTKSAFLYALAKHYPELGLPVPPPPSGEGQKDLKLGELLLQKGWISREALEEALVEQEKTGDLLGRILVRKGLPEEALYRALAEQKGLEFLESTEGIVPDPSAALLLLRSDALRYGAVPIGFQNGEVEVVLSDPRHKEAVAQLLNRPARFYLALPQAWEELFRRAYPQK", "test": "ITC binding to PilF1-302", "details": "20 °C", "experimental": "as §1"}, "[3]": {"biological_target": "T4, PilF159-221 (lacking the C-terminal subdomain) (Thermus thermophilus, UniProt Q5SLC9)", "T4 sequence (Q5SLC9 159-221)": "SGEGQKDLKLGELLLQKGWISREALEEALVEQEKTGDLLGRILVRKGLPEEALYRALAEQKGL", "test": "ITC binding to PilF159-221", "experimental": "as §1"}, "PilF159-302 Q190E": {"biological_target": "T5, PilF159-302 Q190E (Thermus thermophilus, UniProt Q5SLC9, Q190E)", "T5 sequence (Q5SLC9 159-302 Q190E)": "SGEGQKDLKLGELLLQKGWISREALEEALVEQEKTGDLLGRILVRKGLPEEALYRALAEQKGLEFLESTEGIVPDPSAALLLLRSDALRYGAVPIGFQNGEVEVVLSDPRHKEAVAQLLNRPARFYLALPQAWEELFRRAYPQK", "test": "ITC binding to PilF159-302 Q190E", "details": "20 °C", "experimental": "as §1"}, "PilF159-302 Q218E": {"biological_target": "T6, PilF159-302 Q218E (Thermus thermophilus, UniProt Q5SLC9, Q218E)", "T6 sequence (Q5SLC9 159-302 Q218E)": "T5 sequence (Q5SLC9 159-302 Q190E)", "test": "ITC binding to PilF159-302 Q218E", "details": "20 °C", "experimental": "as §1"}, "PilF159-302 Q190E+Q218E": {"test_system": "PilF159-302 Q190E+Q218E", "test": "ITC binding to PilF159-302 Q190E+Q218E", "design": "species or system Thermus thermophilus", "details": "20 °C, double mutant", "experimental": "as §1"}, "PilF GSPII-A domain": {"test_system": "PilF GSPII-A domain", "test": "ITC comparison of domain truncation constructs", "type": "binding, Thermus thermophilus", "details": "inferred from ITC of PilF1-302 vs PilF159-302 and PilF1-482", "experimental": "as §1"}, "[4]": {"biological_target": "MshEN lacking the entire C-terminal subdomain", "design": "method as in PMID 27578558", "details": "entire C-terminal subdomain deleted; read-out: KD (ligand affinity); cited from earlier work"}},
  "note": "Like-named read-outs stand apart in the source and are kept apart here.",
  "data": [
    {"compound": "Nc1nc2c(ncn2[C@@H]2O[C@@H]3COP(=O)(O)O[C@H]4[C@@H](O)[C@H](n5cnc6c(=O)[nH]c(N)nc65)O[C@@H]4COP(=O)(O)O[C@H]3[C@H]2O)c(=O)[nH]1", "note": "[c-di-GMP, cyclic dimeric guanosine monophosphate]", "values": [
      {"measurement": "N, site 1", "setting": "[1]; Table S1 site 1", "value": "0.98 ± 0.04"},
      {"measurement": "ΔH, site 1", "setting": "[1]; Table S1 site 1", "value": "-12.793 ± 0.095", "unit": "kcal/mol"},
      {"measurement": "ΔS, site 1", "setting": "[1]; Table S1 site 1", "value": "-14.6 ± 0.2", "unit": "cal/mol/deg"},
      {"measurement": "N, site 2", "setting": "[1]; Table S1 site 2", "value": "0.85 ± 0.03"},
      {"measurement": "ΔH, site 2", "setting": "[1]; Table S1 site 2", "value": "-17.536 ± 0.128", "unit": "kcal/mol"},
      {"measurement": "ΔS, site 2", "setting": "[1]; Table S1 site 2", "value": "-24.3 ± 0.3", "unit": "cal/mol/deg"},
      {"measurement": "Kd", "setting": "[1]; read-out: KD, high-affinity site (KD1 in text; site 2 in Table S1)", "value": "17 ± 1", "unit": "nM"},
      {"measurement": "Kd", "setting": "[1]; read-out: KD, low-affinity site (KD2 in text; site 1 in Table S1)", "value": "461 ± 36", "unit": "nM"},
      {"measurement": "N, site 1", "setting": "PilF159-482; Table S1 site 1", "value": "1 ± 0.1"},
      {"measurement": "ΔH, site 1", "setting": "PilF159-482; Table S1 site 1", "value": "-8.689 ± 0.959", "unit": "kcal/mol"},
      {"measurement": "ΔS, site 1", "setting": "PilF159-482; Table S1 site 1", "value": "0.95 ± 3.5", "unit": "cal/mol/deg"},
      {"measurement": "N, site 2", "setting": "PilF159-482; Table S1 site 2", "value": "0.7 ± 0.1"},
      {"measurement": "ΔH, site 2", "setting": "PilF159-482; Table S1 site 2", "value": "-11.766 ± 1.182", "unit": "kcal/mol"},
      {"measurement": "ΔS, site 2", "setting": "PilF159-482; Table S1 site 2", "value": "2.1 ± 4.7", "unit": "cal/mol/deg"},
      {"measurement": "Kd", "setting": "PilF159-482; read-out: KD, site 1 (low affinity)", "value": "208 ± 27", "unit": "nM"},
      {"measurement": "Kd", "setting": "PilF159-482; read-out: KD, site 2 (high affinity)", "value": "1 ± 0.3", "unit": "nM"},
      {"measurement": "N", "setting": "[2]", "value": "0.94 ± 0.13"},
      {"measurement": "ΔH", "setting": "[2]", "value": "-14.263 ± 2.001", "unit": "kcal/mol"},
      {"measurement": "ΔS", "setting": "[2]", "value": "-11.4 ± 6.4", "unit": "cal/mol/deg"},
      {"measurement": "Kd", "setting": "[2]; pH 7.5", "value": "7 ± 2", "unit": "nM"},
      {"measurement": "N", "setting": "[3]; ITC, 20 °C", "value": "1.17 ± 0.02"},
      {"measurement": "ΔH", "setting": "[3]; ITC, 20 °C", "value": "-11.453 ± 0.189", "unit": "kcal/mol"},
      {"measurement": "ΔS", "setting": "[3]; ITC, 20 °C", "value": "-5.8 ± 0.6", "unit": "cal/mol/deg"},
      {"measurement": "Kd", "setting": "[3]; ITC, 20 °C, pH 7.5", "value": "54 ± 3", "unit": "nM"},
      {"measurement": "fold higher KD than PilF159-302", "setting": "[3]; PilF159-302 6 nM", "value": 9, "unit": "fold"},
      {"measurement": "N", "setting": "PilF159-302 Q190E", "value": "1.11 ± 0.03"},
      {"measurement": "ΔH", "setting": "PilF159-302 Q190E", "value": "-3.389 ± 0.156", "unit": "kcal/mol"},
      {"measurement": "ΔS", "setting": "PilF159-302 Q190E", "value": "15.4 ± 0.4", "unit": "cal/mol/deg"},
      {"measurement": "Kd", "setting": "PilF159-302 Q190E; pH 7.5", "value": "950 ± 7", "unit": "nM"},
      {"measurement": "N", "setting": "PilF159-302 Q218E", "value": "1.26 ± 0.06"},
      {"measurement": "ΔH", "setting": "PilF159-302 Q218E", "value": "-5.312 ± 0.34", "unit": "kcal/mol"},
      {"measurement": "ΔS", "setting": "PilF159-302 Q218E", "value": "10.9 ± 1.0", "unit": "cal/mol/deg"},
      {"measurement": "Kd", "setting": "PilF159-302 Q218E; pH 7.5", "value": "460 ± 28", "unit": "nM"},
      {"measurement": "c-di-GMP binding", "setting": "PilF159-302 Q190E+Q218E", "value": "abrogated c-di-GMP binding"},
      {"measurement": "ability to bind c-di-GMP", "setting": "PilF GSPII-A domain", "value": "lacking the ability to bind c-di-GMP"},
      {"measurement": "Kd", "setting": "[4]", "value": 350, "unit": "nM"}
    ]}
  ]
}
